Measurements published in patent US20260265302A1, “PEPTIDE WITH ACTIVITY OF PROMOTING HAIR GROWTH OR INHIBITING HAIR LOSS AND USE THEREOF” (CAREGEN CO., LTD., priority 2023, published 2026).
Entries after “also recorded” stand apart in the source; their conditions may differ.

Assays:
β-catenin = test: Nuclear β-catenin western blot (promotion of proliferation mechanism of hair follicle cells); assay type: cell-based, human; details: HHFDPC; for translocation of β-catenin from the cytoplasm to the nucleus (in words): peptides at various concentrations (FIG. 6)
Procedure: To confirm the effect of a peptide consisting of the amino acid sequence of SEQ ID NO: 1 on promoting the proliferation mechanism of hair follicle cells. Specifically, human hair follicle dermal papilla cells were seeded in a 6-well plate at a density of 4×10^5 cells/well and cultured for 24 hours. After replacing with serum-free mesenchymal stem cell medium, the cells were cultured for 24 hours. A peptide was treated at concentrations of 10 μM, 50 μM, or 100 μM, respectively, and incubated at 37° C. for 24 hours. As a positive control group, 10 ng/ml of recombinant human Wnt-3a protein was treated. After washing with PBS, nucleoproteins were isolated using a nucleoprotein extraction kit (Thermo scientific, USA) and quantified with BCA to prepare equal amounts of protein samples. The proteins separated by electrophoresis using a 10% SDS-PAGE gel were transferred to a PVDF membrane. Blocking was performed at room temperature for 30 minutes using 5% skim milk. β-catenin (cell signaling, USA) and HDAC1 (santa cruz, USA) antibodies were diluted 1:1000 in 3% BSA and reacted with the membrane at 4° C. for 16 hours. The membrane was washed three times with 0.1% PBS-T (0.1% Tween-20 in PBS) for 15 minutes each. The secondary antibody was diluted 1:2000 in 5% skim milk and reacted at room temperature for 1 hour. The membrane was then washed three times with 0.1% PBS-T (0.1% Tween-20 in PBS) for 15 minutes each. After treatment with ECL solution (GE Healthcare, USA), the membrane was detected.
The proliferation-promoting effects of a novel peptide consisting of the amino acid sequence of SEQ ID NO: 1 and a peptide consisting of the amino acid sequence of SEQ ID NO: 10 on hair follicle cells were compared. The experiment was conducted in the same manner as described in Example 3, in which HHFDPC was treated with peptides at various concentrations and the translocation of β-catenin from the cytoplasm to the nucleus was measured.

[1] = test system: human hair follicle dermal papilla cells; test: Hair follicle cell proliferation (SRB staining, absorbance 560 nm); assay type: cell-based; details: HHFDPC; for proliferation effect on hair follicle cells (in words): peptides at different concentrations (FIG. 1, FIG. 5)
Procedure: To confirm the effect of a peptide consisting of the amino acid sequence of SEQ ID NO: 1 on promoting the proliferation of hair follicle cells. Specifically, human hair follicle dermal papilla cells were seeded in a 96-well plate at a density of 4×10^3 cells/well and cultured for 24 hours. After replacing with serum-free mesenchymal stem cell medium, the cells were cultured for 24 hours. The above peptide was treated at concentrations of 10 μM, 50 μM, or 100 μM, respectively, and incubated at 37° C. for 72 hours. As a positive control group, 1 μM of Minoxidil, a hair loss treatment drug, was treated. After completion of culturing, the culture supernatant was removed and the cells were fixed using ethanol. After washing with PBS, staining was performed by treating with SRB solution. After washing with 1% acetic acid, cells were observed under a microscope and destained by treating with 20 mM tris solution. Cell viability was measured by measuring absorbance at a wavelength of 560 nm using a spectrophotometer (SpectraMax iD3, Molecular Devices (USA, CA)).
The proliferation effects of a novel peptide consisting of the amino acid sequence of SEQ ID NO: 1 and a peptide consisting of the amino acid sequence of SEQ ID NO: 10 disclosed in KR10-1285259 (Table 3) on hair follicle cell proliferation were compared. The experiment was conducted in the same manner as described in Example 2, and the cell proliferation effect was measured after treating HHFDPC with peptides at different concentrations.

c-Myc = test: RT-PCR expression of c-Myc in hair follicle dermal papilla cells; assay type: cell-based, human; details: HHFDPC, peptide 10, 50 or 100 μM, 24 hours, maximum effect (FIG. 3)
Procedure: (§1) To confirm the effect of a peptide consisting of the amino acid sequence of SEQ ID NO: 1 on promoting hair follicle cell activity. Human hair follicle dermal papilla cells were seeded in 6-well plates at a density of 4×10^5 cells/well and cultured for 24 hours. After replacing with serum-free mesenchymal stem cell medium, the cells were cultured for 24 hours. A peptide was treated at concentrations of 10 μM, 50 μM, or 100 μM, respectively, and incubated at 37° C. for 24 hours. As a positive control group, 10 ng/mL of recombinant human Wnt-3a protein was treated. After washing with PBS, RNA was isolated by treating with 300 μL of easy blue (intron, Korea). After RNA quantification, cDNA synthesis was performed using a cDNA synthesis kit (enzynomics, Korea). Electrophoresis was performed on a 1.5% agarose gel and band detection was performed using a Bio-Rad gel image system.

Cyclin D1 = test: RT-PCR expression of Cyclin D1 in hair follicle dermal papilla cells; assay type: cell-based, human; details: HHFDPC, peptide 10, 50 or 100 μM, 24 hours, maximum effect (FIG. 3)
Procedure: as §1

Lef-1 = test: RT-PCR expression of Lef-1 in hair follicle dermal papilla cells; assay type: cell-based, human; details: HHFDPC, peptide 10, 50 or 100 μM, 24 hours, maximum effect (FIG. 3)
Procedure: as §1

DKK-1 = test: DHT-induced DKK-1 expression western blot in hair follicle dermal papilla cells; assay type: cell-based, human; details: HHFDPC; for inhibiting effect on DKK-1 expression (in words): DHT-induced, peptides at different concentrations (FIG. 4, FIG. 7)
Procedure: To confirm whether a peptide consisting of the amino acid sequence of SEQ ID NO: 1 inhibits the expression of DKK-1, a hair loss-related factor, in hair follicle cells. Human hair follicle dermal papilla cells were seeded in 6-well plates at a density of 4×10^5 cells/well and cultured for 24 hours. After replacing with serum-free mesenchymal stem cell medium, the cells were cultured for 24 hours. The peptides were treated at concentrations of 10 μM, 50 μM, or 100 μM, respectively, and simultaneously treated with DHT, an inducer of hair loss protein DKK-1, at a concentration of 100 nM. As a positive control group, 5 μM of finasteride, a drug that inhibits androgens, was treated. DHT is known as a hair loss hormone that increases the expression of DKK-1 (Dickkopf-related protein 1), a hair loss-inducing factor, by activating androgen receptors. After culturing at 37° C. for 24 hours, the cells were washed with PBS, treated with lysis buffer to prepare cell lysates, and equal amounts of protein samples were prepared by BCA quantification. Electrophoresis was performed using a 10% SDS-PAGE gel. Proteins separated by SDS PAGE were transferred to a PVDF membrane. Blocking was performed at room temperature for 30 minutes using 5% skim milk. DKK-1 (cell signaling, USA) antibody was diluted 1:1000 in 3% BSA and reacted with the membrane at 4° C. for 16 hours. The membrane was then washed three times with 0.1% PBS-T (0.1% Tween-20 in PBS) for 15 minutes each. The secondary antibody was diluted 1:2000 in 5% skim milk and reacted at room temperature for 1 hour. The membrane was then washed three times with 0.1% PBS-T (0.1% Tween-20 in PBS) for 15 minutes each. After treatment with ECL solution (GE Healthcare, USA), protein band detection and densitometry were performed using ImageQuant 800 (Amersham, USA).
The effect of inhibiting the expression of hair loss-related factors was compared between the novel peptide consisting of the amino acid sequence of SEQ ID NO: 1 and the peptide consisting of the amino acid sequence of SEQ ID NO: 10. The experiment was conducted in the same manner as described in Example 5, and it was confirmed whether the expression of DKK-1, a hair loss-related factor, was inhibited after treating HHFDPC with peptides at different concentrations.

| Sequence | nuclear translocation of β-catenin from the cytoplasm to the nucleus, increase (β-catenin; peptide 10, 50 or 100 μM, 24 hours, nucleoprotein western blot, maximum effect (FIG. 2)) | expression of β-catenin (in words) (β-catenin; peptide 10, 50 or 100 μM, 24 hours, western blot (FIG. 2)) | translocation of β-catenin from the cytoplasm to the nucleus (in words) (β-catenin) | proliferation mechanism promoting activity compared with the known peptide (β-catenin; same concentration, SEQ ID NO: 1 vs SEQ ID NO: 10 (FIG. 6)) | proliferation increase of hair follicle cells ([1]; peptide 10, 50 or 100 μM, 72 hours, maximum effect (FIG. 1)) | proliferation effect on hair follicle cells (in words) [1] | hair follicle cell proliferation promotion activity compared with the known peptide ([1]; same concentration, SEQ ID NO: 1 vs SEQ ID NO: 10 (FIG. 5)) | c-Myc expression increase compared to the control group (c-Myc) | Cyclin D1 expression increase compared to the control group (Cyclin D1) | Lef-1 expression increase compared to the control group (Lef-1) | inhibiting effect on DKK-1 expression (in words) (DKK-1) | DKK-1 expression level reduction compared to the negative control group (DHT treatment group) (DKK-1; high-concentration peptide treatment group, DHT 100 nM, 24 hours, western blot (FIG. 4)) | ability to inhibit the expression of DKK-1 compared with the known peptide (DKK-1; same concentration, SEQ ID NO: 1 vs SEQ ID NO: 10 (FIG. 7)) |
| --- | --- | --- | --- | --- | --- | --- | --- | --- | --- | --- | --- | --- | --- |
| AERRREKCRC [SEQ ID NO: 1] | up to 1.35 times | expression of β-catenin increases | promote the translocation of β-catenin from the cytoplasm to the nucleus in a concentration-dependent manner | significantly higher proliferation mechanism promoting activity than the known peptide | up to 155% | proliferation was induced in a concentration-dependent manner; also recorded: exhibit a proliferation effect on hair follicle cells in a concentration-dependent manner | significantly higher hair follicle cell proliferation promotion activity than the known peptide | up to 1.62 times | up to 1.96 times | up to 3 times | exhibit an inhibiting effect on DKK-1 expression in a concentration-dependent manner; also recorded: inhibiting DKK-1 expression induced by DHT | about 50% | significantly higher ability to inhibit the expression of DKK-1 than the known peptide |
| AERRRELCRC [SEQ ID NO: 10, reference compound] | – | – | promote the translocation of β-catenin from the cytoplasm to the nucleus in a concentration-dependent manner | – | – | exhibit a proliferation effect on hair follicle cells in a concentration-dependent manner | – | – | – | – | exhibit an inhibiting effect on DKK-1 expression in a concentration-dependent manner | – | – |
